Source: patent EP4656642A1, “ESTROGEN RECEPTOR PROTEOLYSIS TARGETING CHIMERA COMPOUND AND USE THEREOF” (GAN & LEE PHARM CO., LTD, priority 2023, dated 2024)

How the values were obtained:
Assay type in all cases: cell-based
ERα [1] = target: T1, ERα (Homo sapiens, UniProt P03372); assay: Degradation of ERα in MCF-7 cells (immunoblotting, 4 h)
T1 sequence (P03372 1-595): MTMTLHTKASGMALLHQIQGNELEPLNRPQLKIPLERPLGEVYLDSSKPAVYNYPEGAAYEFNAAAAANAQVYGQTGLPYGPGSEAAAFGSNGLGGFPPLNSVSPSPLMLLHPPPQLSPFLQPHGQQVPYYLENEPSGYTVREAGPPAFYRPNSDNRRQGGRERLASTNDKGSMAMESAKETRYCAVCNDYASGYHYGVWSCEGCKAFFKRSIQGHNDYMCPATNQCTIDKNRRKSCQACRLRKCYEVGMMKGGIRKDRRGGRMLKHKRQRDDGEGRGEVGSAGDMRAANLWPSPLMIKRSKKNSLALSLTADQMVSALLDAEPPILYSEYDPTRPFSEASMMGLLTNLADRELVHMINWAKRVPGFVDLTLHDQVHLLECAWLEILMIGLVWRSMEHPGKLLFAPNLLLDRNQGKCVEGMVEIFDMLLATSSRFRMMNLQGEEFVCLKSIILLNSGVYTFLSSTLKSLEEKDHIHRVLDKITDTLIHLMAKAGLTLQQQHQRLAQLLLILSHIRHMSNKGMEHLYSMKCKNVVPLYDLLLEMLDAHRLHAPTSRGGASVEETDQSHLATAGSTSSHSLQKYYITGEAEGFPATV
Method in brief: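 MCF-7 cells treated 4 h at 37°C with compounds at 0.15-1000nM final. ERα in lysates measured by immunoblot, with band grayscale normalized to an internal reference protein. Degradation rate calculated against DMSO-treated control.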

ERα [2] = target: T1, ERα; assay: Degradation of ERα in T-47D cells (immunoblotting, 4 h); design: host or cells: T-47D
Method in brief: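 T-47D cells were treated with compound (final 0.15-1000 nM, DMSO) for 4 h at 37°C, 5% CO2. Cells were lysed in RIPA buffer with protease inhibitor, and ERα protein in the cleared lysate was measured by immunoblotting.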

MCF-7 cells = assay: Inhibition of cell proliferation of MCF-7 cells (CCK-8, 9 days); details: treated for 9 days, CCK-8 kit (Table 6)
Method in brief: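 MCF-7 cells seeded at 800 cells/well in DMEM with 10% FBS, exposed to a range of compound concentrations for 9 days at 37°C, 5% CO2. Viability read by CCK-8; IC50 derived for proliferation inhibition.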

| Structure (SMILES) | Degradation rate (%) of ERα in MCF-7 cells (ERα [1]; 1nM compound) [%] | Degradation rate (%) of ERα in MCF-7 cells (ERα [1]; 10nM compound) [%] | Degradation rate (%) of ERα in T-47D cells (ERα [2]; 1nM compound) [%] | Degradation rate (%) of ERα in T-47D cells (ERα [2]; 10nM compound) [%] | IC50 (MCF-7 cells) [nM] |
| --- | --- | --- | --- | --- | --- |
| O=C1CCC(N2Cc3c(ccc4c3OCC43CCN(C4CCN(CC5CCN(c6ccc([C@@H]7c8ccc(O)cc8CC[C@@H]7c7ccccc7)cc6)CC5)CC4)CC3)C2=O)C(=O)N1 (some centres unmarked) [G1] | 25 | 35 | 22 | 53 | 4.13 |
| O=C1CCC(N2Cc3c(ccc4c3OCC43CCN(C4CC5(CCN(C6CC7(CCN(c8ccc([C@@H]9c%10ccc(O)cc%10CC[C@@H]9c9ccccc9)cc8)CC7)C6)CC5)C4)CC3)C2=O)C(=O)N1 (some centres unmarked) [G8] | 29 | 73 | 45 | 81 | 749 |
| O=C1CCC(N2Cc3c(ccc4c3OCC43CCN(C4CC5CCC(C4)N5C(=O)C4CCN(c5ccc([C@@H]6c7ccc(O)cc7CC[C@@H]6c6ccccc6)cc5)CC4)CC3)C2=O)C(=O)N1 (some centres unmarked) [G10] | 45 | 66 | 62 | 85 | 18.2 |
| C[C@H]1C[C@@H](N2CCC3(CC2)COc2c3ccc3c2CN(C2CCC(=O)NC2=O)C3=O)CCN1C(=O)C1CCN(c2ccc([C@@H]3c4ccc(O)cc4CC[C@@H]3c3ccccc3)cc2)CC1 (some centres unmarked) [G11] | 38 | 56 | 55 | 80 | 890 |
| O=C1CCC(N2Cc3c(ccc4c3OCC43CCN(C4CCN(C(=O)C5CCN(c6ccc(C7c8ccc(O)cc8CCC7c7ccccc7)cc6)CC5)CC4F)CC3)C2=O)C(=O)N1 (centres unmarked) [G12] | 24 | 57 | 47 | 81 | 9.27 |
| O=C1CCC(N2Cc3c(ccc4c3OCC43CCN(C4CCN(C5CCN(c6ccc(C7c8ccc(O)cc8CCC7c7ccccc7)cc6)CC5)CC4F)CC3)C2=O)C(=O)N1 (centres unmarked) [G13] | 30 | 71 | 43 | 80 | 6.82 |
| O=C1CCC(N2Cc3c(ccc4c3OC3(CC4)CCN(C4CCN(C(=O)C5CCN(c6ccc([C@@H]7c8ccc(O)cc8CC[C@@H]7c7ccccc7)cc6)CC5)CC4)CC3)C2=O)C(=O)N1 (some centres unmarked) [G15] | -19 | 20 | 39 | 72 | 10.2 |
| O=C1CCC(N2Cc3c(ccc4c3OCC43CCN(C(=O)C4CCC(CN5CCN(c6ccc(C7c8ccc(O)cc8CCC7c7ccccc7)cc6)CC5)CC4)CC3)C2=O)C(=O)N1 (centres unmarked) [G16] | 54 | 70 | 68 | 81 | 3.07 |
| O=C1CCC(N2Cc3c(ccc4c3OCC43CCN(C[C@H]4CC[C@H](C(=O)N5CCN(c6ccc([C@@H]7c8ccc(O)cc8CC[C@@H]7c7ccccc7)cc6)CC5)CC4)CC3)C2=O)C(=O)N1 (some centres unmarked) [G18] | 63 | 77 | 49 | 78 | 129 |
| C[C@@H]1Cc2c(ccc3[nH]ncc23)C(c2c(F)cc(N3CCC4(CCC(N5CCC6(CC5)COc5c6ccc6c5CN(C5CCC(=O)NC5=O)C6=O)CC4)CC3)cc2F)N1CC(F)F (some centres unmarked) [G20] | 22 | 45 | 51 | 69 | 49.7 |
| CC1Cc2c(ccc3[nH]ncc23)C(c2c(F)cc(N3CCC4(CC3)CC(N3CCC(N5CCC6(CC5)COc5c6ccc6c5CN(C5CCC(=O)NC5=O)C6=O)C(F)C3)C4)cc2F)N1CC(F)F (centres unmarked) [G22] | 50 | 65 | 34 | 63 | 5.08 |
| O=C1CCC(N2Cc3c(ccc4c3OCC43CCN(C(=O)C45CCC(CN6CCN(c7ccc([C@@H]8c9ccc(O)cc9CC[C@@H]8c8ccccc8)cc7)CC6)(CC4)CC5)CC3)C2=O)C(=O)N1 (some centres unmarked) [G23] | 1 | 43 | 28 | 62 | 445 |
| O=C1CCC(N2Cc3c(ccc4c3OCC43CCN(C[C@H]4CC[C@@H](OC5CCN(c6ccc([C@@H]7c8ccc(O)cc8CC[C@@H]7c7ccccc7)cc6)CC5)CC4)CC3)C2=O)C(=O)N1 (some centres unmarked) [G25] | 10 | 77 | 49 | 79 | 8.97 |
| O=C1CCC(N2Cc3cc4c(cc3C2=O)CCC2(CN(CC3CCN(c5ccc([C@@H]6c7ccc(O)cc7CC[C@@H]6c6ccccc6)cc5)CC3)C2)O4)C(=O)N1 (some centres unmarked) [H2] | -77 | -70 | -11 | -23 | 5900 |
| O=C1CCC(N2C(=O)c3ccc4c(c3C2=O)OCC42CCN(CC3CCN(c4ccc([C@@H]5c6ccc(O)cc6CC[C@@H]5c5ccccc5)cc4)CC3)CC2)C(=O)N1 (some centres unmarked) [H4] | -32 | -7 | -41 | -48 | 7740 |
| O=C1CCC(N2Cc3cc4c(cc3C2=O)C2(CCN(CC3CCN(c5ccc([C@@H]6c7ccc(O)cc7CC[C@@H]6c6ccccc6)cc5)CC3)CC2)CO4)C(=O)N1 (some centres unmarked) [H6] | -6 | 7 | -35 | -32 | 4170 |
| O=C1CCC(N2Cc3cc4c(cc3C2=O)CCC2(CN(C3CCN(C(=O)c5ccc([C@@H]6c7ccc(O)cc7CC[C@@H]6c6ccccc6)cc5)CC3)C2)O4)C(=O)N1 (some centres unmarked) [H10] | -28 | -4 | 0 | 36 | 9280 |
| O=C1CCC(N2Cc3c(ccc4c3OCC43CCN(C(=O)CN4CCC5(CCN(c6ccc([C@@H]7c8ccc(O)cc8CC[C@@H]7c7ccccc7)cc6)C5)C4)CC3)C2=O)C(=O)N1 (some centres unmarked) [H13] | 39 | 62 | 48 | 71 | 3.24 |
| O=C1CCC(N2Cc3c(ccc4c3OCC43CCN(C(=O)CN4CCN(c5ccc([C@@H]6c7ccc(O)cc7CC[C@@H]6c6ccccc6)cc5)CC4)CC3)C2=O)C(=O)N1 (some centres unmarked) [H14] | 8 | -13 | 31 | 27 | > 100000 |
